Assay results reported in PMC11365428 (The Journal of Biological Chemistry, 2024).
Converted amounts (≈) assume the structure as drawn. Read-outs that look alike come from different tables or passages of the source. Values belong to the molecule of their own block, whether it stands above or below them. Non-standard residues stand in square brackets, D forms with d. Residues, ends and D or L forms follow the SMILES beside them. No end group written: not given here. pGlu = O=C1CC[C@@H](C(=O)O)N1

How the values were obtained:
[1] = trifluoroacetate counter ion, ref ChinaPeptides Co., Ltd. certificate of analysis (Fig. S21), cited from earlier work
apTKRPR-B = target: T1, apTKRPR-B (Aplysia californica, UniProt A0AAU7STS1); assay: IP1 accumulation assay, CHO-K1 cells transiently expressing apTKRPR-B; assay type: cell-based
T1 sequence (A0AAU7STS1 1-447): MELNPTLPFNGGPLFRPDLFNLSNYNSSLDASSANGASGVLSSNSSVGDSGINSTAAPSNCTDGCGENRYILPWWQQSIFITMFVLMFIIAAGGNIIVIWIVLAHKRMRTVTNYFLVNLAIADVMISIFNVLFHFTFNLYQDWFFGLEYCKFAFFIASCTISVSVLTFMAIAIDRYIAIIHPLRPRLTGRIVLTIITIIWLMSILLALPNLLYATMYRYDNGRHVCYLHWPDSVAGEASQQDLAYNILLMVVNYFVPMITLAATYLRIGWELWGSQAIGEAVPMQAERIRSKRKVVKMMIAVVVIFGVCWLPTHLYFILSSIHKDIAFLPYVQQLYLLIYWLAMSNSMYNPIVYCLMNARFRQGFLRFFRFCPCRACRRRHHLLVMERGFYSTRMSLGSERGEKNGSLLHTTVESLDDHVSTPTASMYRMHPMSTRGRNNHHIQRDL
Description: (§1) To express putative Aplysia receptors transiently in CHO-K1 cells, the cDNAs were subcloned into the pcDNA3.1(+) or pcDNA3.1(+)-FLAG (for ELISA experiments only, see “Cell surface expression analysis by ELISA” section) expression vector. On the day before transfection, the CHO-K1 cells were passaged into 60 mm diameter tissue culture–treated dishes, and the transfection experiments were performed when the cells were grown to 70 to 90% confluence. CHO-K1 cells were transfected with the cDNA plasmid constructs using Turbofect Transfection reagent (Thermo Fisher Scientific, R0531), following the manufacturer’s instructions. […] The DNA/TurboFect mixture dropwise was then added to the dish, and the cells were incubated at 37 °C in a humidified incubator containing 5% CO2 overnight.
(§2) On the third day, the activation of the putative receptors was detected by monitoring intracellular IP1 concentration using an IP-One Gq kit (Cisbio, 62IPAPEB) in Tecan Spark. Except for using 0.5x reagent, all other procedures were performed following the manufacturer’s instructions. IP1 accumulation assay measures the accumulation of IP1, which is hydrolyzed from the second messenger, and inositol triphosphate. Inositol triphosphate is generated by the Gαq pathway when a GPCR is activated by an appropriate ligand.

apTKRPR-A = target: T2, apTKRPR-A (Aplysia californica, UniProt A0AAU7SSZ1); assay: IP1 accumulation assay, CHO-K1 cells transiently expressing apTKRPR-A; assay type: cell-based
T2 sequence (A0AAU7SSZ1 1-398): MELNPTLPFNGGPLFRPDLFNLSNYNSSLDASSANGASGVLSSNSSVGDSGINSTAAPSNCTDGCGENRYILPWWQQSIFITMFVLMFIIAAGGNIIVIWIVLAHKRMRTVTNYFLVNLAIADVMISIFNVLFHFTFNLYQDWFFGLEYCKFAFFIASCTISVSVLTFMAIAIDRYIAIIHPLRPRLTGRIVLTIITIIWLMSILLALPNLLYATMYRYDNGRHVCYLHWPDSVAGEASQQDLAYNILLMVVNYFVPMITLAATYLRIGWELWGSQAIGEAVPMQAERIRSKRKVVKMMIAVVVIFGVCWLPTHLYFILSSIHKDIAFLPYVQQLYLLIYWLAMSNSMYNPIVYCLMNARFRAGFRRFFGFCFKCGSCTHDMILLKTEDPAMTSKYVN
Description: as §1, §2

[2] = target: Aplysia tachykinin-related peptide receptor B (apTKRPR-B) (Aplysia californica)
[3] = target: Aplysia tachykinin-related peptide receptor A (apTKRPR-A) (Aplysia californica)
[4] = log10 of EC50 in M, negative, IP1 accumulation, CHO-K1, mean ± SD of at least three independent experiments (apTKRP-1 n = 9; apTKRP-2a n = 11; apTKRP-2b n = 19; analogs, apTKRP-2b-OH n = 4), read-out: apTKRPR-B log[EC50] (converted)
[5] = log10 of EC50 in M, negative, IP1 accumulation, CHO-K1, mean ± SD of at least three independent experiments (apTKRP-1 n = 9; apTKRP-2a n = 11; apTKRP-2b n = 19; analogs, apTKRP-2b-OH n = 4), read-out: apTKRPR-A log[EC50] (converted)

Molecule: CC(C)C[C@H](NC(=O)[C@H](Cc1c[nH]cn1)NC(=O)[C@H](C)NC(=O)[C@@H]1CCC(=O)N1)C(=O)NCC(=O)N[C@@H](Cc1ccccc1)C(=O)N[C@@H](Cc1c[nH]cn1)C(=O)NCC(=O)N[C@@H](CO)C(=O)N[C@@H](CCCNC(=N)N)C(N)=O [[Ala^2]apTKRP-2b] ([pGlu]AHLGFHGSR-NH2)
Solubility ([1]; in 15%ACN/85%H2O): 1000 µg/mL (≈ 916 µM)
EC50 (apTKRPR-B): 33.1 nM
EC50 (apTKRPR-A): 309 nM

Molecule: CC(C)C[C@H](NC(=O)[C@H](C)NC(=O)[C@@H]1CCCN1C(=O)[C@@H]1CCC(=O)N1)C(=O)NCC(=O)N[C@@H](Cc1ccccc1)C(=O)N[C@@H](Cc1c[nH]cn1)C(=O)NCC(=O)N[C@@H](CO)C(=O)N[C@@H](CCCNC(=N)N)C(N)=O [[Ala^3]apTKRP-2b] ([pGlu]PALGFHGSR-NH2)
Solubility ([1]; in 15%ACN/85%H2O): 1000 µg/mL (≈ 951 µM)
EC50 (apTKRPR-B): 32.4 nM
EC50 (apTKRPR-A): 295 nM

Molecule: C[C@H](NC(=O)[C@H](Cc1c[nH]cn1)NC(=O)[C@@H]1CCCN1C(=O)[C@@H]1CCC(=O)N1)C(=O)NCC(=O)N[C@@H](Cc1ccccc1)C(=O)N[C@@H](Cc1c[nH]cn1)C(=O)NCC(=O)N[C@@H](CO)C(=O)N[C@@H](CCCNC(=N)N)C(N)=O [[Ala^4]apTKRP-2b] ([pGlu]PHAGFHGSR-NH2)
Solubility ([1]; in 13%ACN/87%H2O): 1000 µg/mL (≈ 930 µM)
EC50 (apTKRPR-B): 1.7 nM
EC50 (apTKRPR-A): 9.77 nM

Molecule: CC(C)C[C@H](NC(=O)[C@H](Cc1c[nH]cn1)NC(=O)[C@@H]1CCCN1C(=O)[C@@H]1CCC(=O)N1)C(=O)N[C@@H](C)C(=O)N[C@@H](Cc1ccccc1)C(=O)N[C@@H](Cc1c[nH]cn1)C(=O)NCC(=O)N[C@@H](CO)C(=O)N[C@@H](CCCNC(=N)N)C(N)=O [[Ala^5]apTKRP-2b] ([pGlu]PHLAFHGSR-NH2)
Solubility ([1]; in 15%ACN/85%H2O): 1000 µg/mL (≈ 884 µM)
EC50 (apTKRPR-B): 537 nM
EC50 (apTKRPR-A): 1660 nM

Molecule: CC(C)C[C@H](NC(=O)[C@H](Cc1c[nH]cn1)NC(=O)[C@@H]1CCCN1C(=O)[C@@H]1CCC(=O)N1)C(=O)NCC(=O)N[C@@H](C)C(=O)N[C@@H](Cc1c[nH]cn1)C(=O)NCC(=O)N[C@@H](CO)C(=O)N[C@@H](CCCNC(=N)N)C(N)=O [[Ala^6]apTKRP-2b] ([pGlu]PHLGAHGSR-NH2)
Solubility ([1]; in 13%ACN/87%H2O): 1000 µg/mL (≈ 960 µM)
EC50 (apTKRPR-B): 537 nM
EC50 (apTKRPR-A): 1510 nM

EC50 (apTKRPR-A): 1070 nM
Molecule: CC(C)C[C@H](NC(=O)[C@H](Cc1c[nH]cn1)NC(=O)[C@@H]1CCCN1C(=O)[C@@H]1CCC(=O)N1)C(=O)NCC(=O)N[C@@H](Cc1ccccc1)C(=O)N[C@@H](C)C(=O)NCC(=O)N[C@@H](CO)C(=O)N[C@@H](CCCNC(=N)N)C(N)=O [[Ala^7]apTKRP-2b] ([pGlu]PHLGFAGSR-NH2)
Solubility ([1]; in 15%ACN/85%H2O): 1000 µg/mL (≈ 951 µM)

Molecule: CC(C)C[C@H](NC(=O)[C@H](Cc1c[nH]cn1)NC(=O)[C@@H]1CCCN1C(=O)[C@@H]1CCC(=O)N1)C(=O)NCC(=O)N[C@@H](Cc1ccccc1)C(=O)N[C@@H](Cc1c[nH]cn1)C(=O)N[C@@H](C)C(=O)N[C@@H](CO)C(=O)N[C@@H](CCCNC(=N)N)C(N)=O [[Ala^8]apTKRP-2b] ([pGlu]PHLGFHASR-NH2)
Solubility ([1]; in 15%ACN/85%H2O): 1000 µg/mL (≈ 884 µM)
EC50 (apTKRPR-B): 3.09 nM
EC50 (apTKRPR-A): 20.9 nM

Molecule: CC(C)C[C@H](NC(=O)[C@H](Cc1c[nH]cn1)NC(=O)[C@@H]1CCCN1C(=O)[C@@H]1CCC(=O)N1)C(=O)NCC(=O)N[C@@H](Cc1ccccc1)C(=O)N[C@@H](Cc1c[nH]cn1)C(=O)NCC(=O)N[C@@H](C)C(=O)N[C@@H](CCCNC(=N)N)C(N)=O [[Ala^9]apTKRP-2b] ([pGlu]PHLGFHGAR-NH2)
Solubility ([1]; in 15%ACN/85%H2O): 1000 µg/mL (≈ 908 µM)
EC50 (apTKRPR-B): 17.4 nM
EC50 (apTKRPR-A): 195 nM

Molecule: CC(C)C[C@H](NC(=O)[C@H](Cc1c[nH]cn1)NC(=O)[C@@H]1CCCN1C(=O)[C@@H]1CCC(=O)N1)C(=O)NCC(=O)N[C@@H](Cc1ccccc1)C(=O)N[C@@H](Cc1c[nH]cn1)C(=O)NCC(=O)N[C@@H](CO)C(=O)N[C@@H](C)C(N)=O [[Ala^10]apTKRP-2b] ([pGlu]PHLGFHGSA-NH2)
Solubility ([1]; in 15%ACN/85%H2O): 1000 µg/mL (≈ 969 µM)
EC50 (apTKRPR-B): > 10000 nM
EC50 (apTKRPR-A): > 10000 nM

Molecule: CC(C)C[C@H](NC(=O)[C@H](Cc1c[nH]cn1)NC(=O)[C@@H]1CCCN1C(=O)[C@@H]1CCC(=O)N1)C(=O)NCC(=O)N[C@@H](Cc1ccccc1)C(=O)N[C@@H](Cc1c[nH]cn1)C(=O)NCC(=O)N[C@@H](CO)C(=O)N[C@@H](CCCNC(=N)N)C(=O)O [apTKRP-2b-OH] ([pGlu]PHLGFHGSR-OH)
EC50 (apTKRPR-B; IP1 accumulation, CHO-K1, from average log[EC50], read-out: apTKRPR-B [EC50]): > 10000 nM
EC50 (apTKRPR-B; [4]): > 10000 nM
EC50 (apTKRPR-A; IP1 accumulation, CHO-K1, from average log[EC50], read-out: apTKRPR-A [EC50]): > 10000 nM
EC50 (apTKRPR-A; [5]): > 10000 nM

Molecule: FKPSGFMGSR-NH2 [apTKRP-1]
EC50 (apTKRPR-B; [4]): 24.5 nM
EC50 (apTKRPR-A; [5]): 145 nM

EC50 of IP1 accumulation in CHO-K1 cells expressing the receptor [2]: > 10000 nM
EC50 of IP1 accumulation in CHO-K1 cells expressing the receptor [3]: > 10000 nM
B1: apTKRP-2b analog with Asp instead of Gly at position eight (peptide)
peptide: [pGlu]PHLGFHDSR-NH2
SMILES: CC(C)C[C@H](NC(=O)[C@H](Cc1c[nH]cn1)NC(=O)[C@@H]1CCCN1C(=O)[C@@H]1CCC(=O)N1)C(=O)NCC(=O)N[C@@H](Cc1ccccc1)C(=O)N[C@@H](Cc1c[nH]cn1)C(=O)N[C@@H](CC(=O)O)C(=O)N[C@@H](CO)C(=O)N[C@@H](CCCNC(=N)N)C(N)=O

EC50 of IP1 accumulation in CHO-K1 cells expressing the receptor [2]: > 10000 nM
EC50 of IP1 accumulation in CHO-K1 cells expressing the receptor [3]: > 10000 nM
B2: apTKRP-2b analog with Leu instead of Gly at position eight (peptide)
peptide: [pGlu]PHLGFHLSR-NH2
SMILES: CC(C)C[C@H](NC(=O)[C@H](Cc1c[nH]cn1)NC(=O)[C@@H]1CCCN1C(=O)[C@@H]1CCC(=O)N1)C(=O)NCC(=O)N[C@@H](Cc1ccccc1)C(=O)N[C@@H](Cc1c[nH]cn1)C(=O)N[C@@H](CC(C)C)C(=O)N[C@@H](CO)C(=O)N[C@@H](CCCNC(=N)N)C(N)=O

EC50 of IP1 accumulation in CHO-K1 cells expressing the receptor [2]: > 10000 nM
EC50 of IP1 accumulation in CHO-K1 cells expressing the receptor [3]: > 10000 nM
B3: apTKRP-2b analog with Lys instead of Gly at position eight (peptide)
peptide: [pGlu]PHLGFHKSR-NH2
SMILES: CC(C)C[C@H](NC(=O)[C@H](Cc1c[nH]cn1)NC(=O)[C@@H]1CCCN1C(=O)[C@@H]1CCC(=O)N1)C(=O)NCC(=O)N[C@@H](Cc1ccccc1)C(=O)N[C@@H](Cc1c[nH]cn1)C(=O)N[C@@H](CCCCN)C(=O)N[C@@H](CO)C(=O)N[C@@H](CCCNC(=N)N)C(N)=O
